According to patent publication US9125384B2, “Mouse having human leukemic stem cell and leukemic non-stem cell amplified therein, and method for production thereof” (RIKEN, priority 2007, dated 2015):
“And” between values parts separate entries of the source, which are not always exact repeats. Equal values may be shown once. “Also recorded” adds a separate entry of the source.

Assays:
[1] = test system: human AML cells in BM cavity and endosteal surface; experiment: Histology of femoral bone sections after Ara-C (HE, TUNEL, immunostaining); assay type: in vivo, mouse (NOD/SCID/IL2rγ^null) engrafted with human AML; settings: day 3 after Ara-C injection, anti-hCD34/hCD38/osteopontin staining
Procedure: Paraformaldehyde-fixed, decalcified, paraffin-embedded sections were prepared from femurs of the recipients transplanted with sorted hCD34^+hCD38^− AML BM cells. Each section was subjected to hematoxylin and eosin (HE) staining. TUNEL staining was performed according to standard procedures using ApopTag peroxidase in situ apoptosis detection kit (Intergene, Purchase, N.Y.) by Biopathology Institute (Oita, Japan). To determine the localization of the CD34^+ cell populations, sections were immunostained with mouse anti-hCD34 antibody (Immunotech, France) and rat anti-mouse osteopontin antibody (Immuno-Biological Laboratories, Tokyo, Japan) were used. For the quantitative localization of LSCs, enodosteal and central regions were defined as the zones within or outside twelve cells from the endosteum, respectively, as described previously (Nilsson, S. K., Johnston, H. M. & Coverdale, J. A. Spatial localization of transplanted hemopoietic stem cells: inferences for the localization of stem cell niches. Blood 97, 2293-2299 (2001)). […] A total of 10,065 cells were counted from femoral and tibial sections. For localization post-engraftment analysis, a total of 24,973 cells were counted using femoral and tibial sections prepared from recipients of BM hCD34^+hCD38^− cells from Cases 4, 10 and 11. […]

[2] = test system: hCD34^+hCD38^− LSCs vs non-stem AML cell fractions; experiment: Post-chemotherapy apoptosis analysis of BM AML cell fractions (Annexin V/7AAD flow cytometry); assay type: in vivo, mouse (NOD/SCID/IL2rγ^null) engrafted with human AML; settings: 150 mg/kg Ara-C i.p.; BM at day 3 after injection; n=3; p<0.05
Procedure: NOD/SCID/IL2rγ^null recipients transplanted with 10^4-10^5 sorted BM hCD34^+hCD38^− cells from Cases 4, 7 and 11 at 12-20 weeks post-transplantation were injected with 150 mg/kg Ara-C i.p. At day 3 after injection, BM was analyzed for the presence of apoptotic cells by first dividing the hCD34^+hCD38^−, hCD34^+hCD38^+ and hCD34^− fractions within the hCD45^+ gate and quantifying the viable population in each fraction by Annexin V and 7-amino-actinomycin D (7AAD) staining (BD Immunocytometry, San Jose, Calif.). Annexin V^−7AAD^− hCD45^+hCD34^+hCD38^− cells were sorted and 10^3 cells were injected intravenously into irradiated newborn NOD/SCID/IL2rγ^null recipients.

[3] = Adverse effect of Ara-C in vivo (hemoglobin, platelet count, plasma AST); settings: 150 mg/kg Ara-C i.p.; day 8 after injection
Procedure: Intraperitoneal (i.p.) injection of 150 mg/kg Ara-C (Biogenesis, Poole, UK) was performed in NOD/SCID/IL2rγ^null recipients transplanted with 10^4 purified BM […] cells from Cases 4 (n=2) and 7 (n=4) at 12-16 weeks post-transplantation. PB was obtained at the time of injection (day 0) and every four days thereafter and MNCs were labeled with mouse anti-hCD45 and anti-hCD33 monoclonal antibodies to determine the fraction of hCD45^+hCD33^+ cells using flow cytometry. The number of AML cells/ml PB was determined by multiplying the fraction of PB hCD45^+CD33^+ cells with total PB leukocyte count/ml in each recipient. Hemoglobin concentration, platelet count and plasma aspartate aminotransferase (AST) levels were analyzed prior to and at 8 days after Ara-C administration.

[4] = test system: human AML cells (hCD45^+hCD33^+); experiment: In vivo anti-leukemic cytotoxicity of Ara-C in AML-engrafted NOD/SCID/IL2rγ^null recipients (PB AML cell count); parameters: species or system mouse (NOD/SCID/IL2rγ^null) engrafted with human AML

Compound: Nc1ccn([C@@H]2O[C@H](CO)[C@@H](O)[C@@H]2O)c(=O)n1 [Ara-C, cytosine arabinoside]
- localization of apoptotic and surviving cells in femoral bone sections [1]: preferential killing of cells in the middle of the BM cavity; also recorded: remain at the endosteal surface abutting murine osteoblasts; also recorded: marked segregation of apoptotic cells in the center of the bone marrow cavity
- chemosensitivity of hCD34^+hCD38^− LSCs compared with non-stem AML cell fractions (apoptosis) [2]: relative resistance to Ara-C; also recorded: more resistant to Ara-C; also recorded: relatively resistant to Ara-C treatment
- hematologic adverse effects (hemoglobin concentration, platelet count) [3]: Typical hematologic adverse effects; also recorded: anemia and thrombocytopenia in all treated mice
- time of nadir of AML count ([4]; single 150 mg/kg Ara-C i.p. on day 0, PB): 8 to 12 days
- time of recovery of PB AML cell count (relapse) ([4]; single 150 mg/kg Ara-C i.p. on day 0, PB, 150 mg/kg): 28 to 32 days and 16 to 28 days
- PB AML burden (hCD45^+hCD33^+ cell count per ml of PB) ([4]; single 150 mg/kg Ara-C i.p., 12-16 weeks post-transplantation, monitored every four days, 150 mg/kg): rapid decline in AML burden; also recorded: markedly reduced
